{"source": "patent US6413911B1", "about": "“Herbicidal sulfonylureas, their preparation and use” (BASF Aktiengesellschaft, priority 1992, dated 2002)", "key": {"Sinapis alba": {"system": "Sinapis alba", "experiment": "greenhouse test, post-emergence herbicidal activity", "assay_type": "in vivo", "excerpt": "(§1) The cultivation containers used were plastic flowerpots containing loamy sand with about 3.0% humus as a substrate. The seeds of the test plants were sown separately according to species. For the purpose of post-emergence treatment, the test plants were first raised, depending on growth form, to a growth height of from 4 to 15 cm and only then treated with the active compounds suspended or emulsified in water. To do this, the test plants were either directly sown and raised in the same containers or they were first raised separately as seed plants and transplanted into the test containers a few days before the treatment. The application rate for post-emergence treatment was 0.06 kg/ha of a.s. (active substance). The plants were kept in a species-specific manner at 10-25° C. or 20-35° C. The test period extended over 2 to 4 weeks. During this time the plants were tended and their reaction to the individual treatments was assessed. Assessment was carried out on a scale of from 0 to 100. 100 here means no germination of the plants or complete destruction of at least the above-ground parts and 0 means no damage or normal course of growth. Comparison of the herbicidal activity of the exemplary compound No. 1.03 with the known comparison compound B on post-emergence application of 0.0313 or 0.0156 kg/ha of a.s. respectively in the greenhouse. Comparison of the herbicidal activity of the exemplary compound No. 3.01 with the known comparison compound H on post-emergence application of 0.063 or 0.0313 kg/ha of a.s. respectively in the greenhouse."}, "Galium aparine": {"system": "Galium aparine", "experiment": "greenhouse test, post-emergence herbicidal activity", "assay_type": "in vivo", "excerpt": "as §1"}, "Polygonum persicaria": {"system": "Polygonum persicaria", "experiment": "greenhouse test, post-emergence herbicidal activity", "assay_type": "in vivo", "settings": "scale 0-100, Table I", "excerpt": "as §1, with “greenhouse.” for “greenhouse. Comparison of the herbicidal activity of the exemplary compound No. 3.01 with the known comparison compound H on post-emergence application of 0.063 or 0.0313 kg/ha of a.s. respectively in the greenhouse.”"}, "Veronica spp.": {"system": "Veronica spp.", "experiment": "greenhouse test, post-emergence herbicidal activity", "assay_type": "in vivo", "settings": "scale 0-100, Table I", "excerpt": "as §1, with “greenhouse.” for “greenhouse. Comparison of the herbicidal activity of the exemplary compound No. 3.01 with the known comparison compound H on post-emergence application of 0.063 or 0.0313 kg/ha of a.s. respectively in the greenhouse.”"}, "Solanum nigrum": {"system": "Solanum nigrum", "experiment": "greenhouse test, post-emergence herbicidal activity", "assay_type": "in vivo", "settings": "scale 0-100, Table I", "excerpt": "as §1, with “greenhouse.” for “greenhouse. Comparison of the herbicidal activity of the exemplary compound No. 3.01 with the known comparison compound H on post-emergence application of 0.063 or 0.0313 kg/ha of a.s. respectively in the greenhouse.”"}, "Amaranthus retroflexus": {"system": "Amaranthus retroflexus", "experiment": "greenhouse test, post-emergence herbicidal activity", "assay_type": "in vivo", "settings": "scale 0-100, Table I", "excerpt": "as §1, with “greenhouse.” for “greenhouse. Comparison of the herbicidal activity of the exemplary compound No. 3.01 with the known comparison compound H on post-emergence application of 0.063 or 0.0313 kg/ha of a.s. respectively in the greenhouse.”"}, "maize": {"system": "maize", "experiment": "greenhouse test, post-emergence selectivity in crop plant maize", "assay_type": "in vivo, Zea mays", "settings": "0.06 kg/ha of a.s. post-emergence", "excerpt": "as §1, with “The plants used in the greenhouse tests were composed” for “Comparison”, “following species: [table]” for “herbicidal activity of the exemplary compound No. 1.03 with the known comparison compound B on post-emergence application of 0.0313 or 0.0156 kg/ha of a.s. respectively in the greenhouse. Comparison of the herbicidal activity of the exemplary compound No. 3.01 with the known comparison compound H on post-emergence application of 0.063 or 0.0313 kg/ha of a.s. respectively in the greenhouse.”"}, "[1]": {"system": "broad-leaved undesired plants", "experiment": "greenhouse test, post-emergence control of broad-leaved undesired plants", "assay_type": "in vivo, Abutilon theophrasti; Sinapis alba", "settings": "0.06 kg/ha of a.s. post-emergence", "excerpt": "as §1, with “The plants used in the greenhouse tests were composed” for “Comparison”, “following species: [table]” for “herbicidal activity of the exemplary compound No. 1.03 with the known comparison compound B on post-emergence application of 0.0313 or 0.0156 kg/ha of a.s. respectively in the greenhouse. Comparison of the herbicidal activity of the exemplary compound No. 3.01 with the known comparison compound H on post-emergence application of 0.063 or 0.0313 kg/ha of a.s. respectively in the greenhouse.”"}, "Triticum aestivum": {"system": "Triticum aestivum", "experiment": "greenhouse test, post-emergence damage to crop plant", "assay_type": "in vivo", "settings": "scale 0-100, Table II", "excerpt": "as §1, with “No.” for “No. 1.03 with the known comparison compound B on post-emergence application of 0.0313 or 0.0156 kg/ha of a.s. respectively in the greenhouse. Comparison of the herbicidal activity of the exemplary compound No.”"}, "Ipoinea spp.": {"system": "Ipoinea spp.", "experiment": "greenhouse test, post-emergence herbicidal activity", "assay_type": "in vivo", "settings": "scale 0-100, Table II", "excerpt": "as §1, with “No.” for “No. 1.03 with the known comparison compound B on post-emergence application of 0.0313 or 0.0156 kg/ha of a.s. respectively in the greenhouse. Comparison of the herbicidal activity of the exemplary compound No.”"}, "Alopecurus myosuroides": {"system": "Alopecurus myosuroides", "experiment": "greenhouse test, post-emergence herbicidal activity", "assay_type": "in vivo", "settings": "scale 0-100, Table II", "excerpt": "as §1, with “No.” for “No. 1.03 with the known comparison compound B on post-emergence application of 0.0313 or 0.0156 kg/ha of a.s. respectively in the greenhouse. Comparison of the herbicidal activity of the exemplary compound No.”"}, "[2]": {"settings": "0.0156 kg/ha of a.s., scale 0-100, Table I"}, "[3]": {"settings": "0.0313 kg/ha of a.s., scale 0-100, Table I"}, "[4]": {"settings": "0.0313 kg/ha of a.s., scale 0-100, Table II"}, "[5]": {"settings": "0.063 kg/ha of a.s., scale 0-100, Table II"}}}
{"smiles": "COC(=O)c1ccccc1S(=O)(=O)NC(=O)Nc1nc(OC)nc(C(F)(F)Cl)n1", "note": "[Example 1.03]", "values": [{"measurement": "Damage [%]", "setting": "Sinapis alba; [2]", "value": 90, "unit": "%"}, {"measurement": "Damage [%]", "setting": "Sinapis alba; [3]", "value": 90, "unit": "%"}, {"measurement": "Damage [%]", "setting": "Galium aparine; [2]", "value": 75, "unit": "%"}, {"measurement": "Damage [%]", "setting": "Galium aparine; [3]", "value": 95, "unit": "%"}, {"measurement": "Damage [%]", "setting": "Polygonum persicaria; 0.0156 kg/ha of a.s.", "value": 80, "unit": "%"}, {"measurement": "Damage [%]", "setting": "Polygonum persicaria; 0.0313 kg/ha of a.s.", "value": 80, "unit": "%"}, {"measurement": "Damage [%]", "setting": "Veronica spp.; 0.0156 kg/ha of a.s.", "value": 75, "unit": "%"}, {"measurement": "Damage [%]", "setting": "Veronica spp.; 0.0313 kg/ha of a.s.", "value": 85, "unit": "%"}, {"measurement": "Damage [%]", "setting": "Solanum nigrum; 0.0156 kg/ha of a.s.", "value": 90, "unit": "%"}, {"measurement": "Damage [%]", "setting": "Solanum nigrum; 0.0313 kg/ha of a.s.", "value": 90, "unit": "%"}, {"measurement": "Damage [%]", "setting": "Amaranthus retroflexus; 0.0156 kg/ha of a.s.", "value": 100, "unit": "%"}, {"measurement": "Damage [%]", "setting": "Amaranthus retroflexus; 0.0313 kg/ha of a.s.", "value": 100, "unit": "%"}, {"measurement": "selectivity in the exemplary crop plant maize", "setting": "maize", "value": "outstanding selectivity"}, {"measurement": "control of broad-leaved undesired plants", "setting": "[1]", "value": "very well controlled"}]}
{"smiles": "COc1nc(NC(=O)NS(=O)(=O)c2ccccc2C(F)(F)F)nc(C(F)F)n1", "note": "[Example 3.01]", "values": [{"measurement": "Damage [%]", "setting": "Triticum aestivum; 0.0313 kg/ha of a.s.", "value": 0, "unit": "%"}, {"measurement": "Damage [%]", "setting": "Triticum aestivum; 0.063 kg/ha of a.s.", "value": 0, "unit": "%"}, {"measurement": "Damage [%]", "setting": "Sinapis alba; [4]", "value": 98, "unit": "%"}, {"measurement": "Damage [%]", "setting": "Sinapis alba; [5]", "value": 98, "unit": "%"}, {"measurement": "Damage [%]", "setting": "Galium aparine; [4]", "value": 95, "unit": "%"}, {"measurement": "Damage [%]", "setting": "Galium aparine; [5]", "value": 95, "unit": "%"}, {"measurement": "Damage [%]", "setting": "Ipoinea spp.; 0.0313 kg/ha of a.s.", "value": 90, "unit": "%"}, {"measurement": "Damage [%]", "setting": "Ipoinea spp.; 0.063 kg/ha of a.s.", "value": 98, "unit": "%"}, {"measurement": "Damage [%]", "setting": "Alopecurus myosuroides; 0.0313 kg/ha of a.s.", "value": 98, "unit": "%"}, {"measurement": "Damage [%]", "setting": "Alopecurus myosuroides; 0.063 kg/ha of a.s.", "value": 98, "unit": "%"}]}
